From patent US20180170776A1, “ANTI-MICROBIAL ADDITIVE FOR USE IN FLOWER VASE WATER” (Enhold B.V., priority 2008, published 2018)

Assays:
[1] = system: mixed bouquet of 12 flowers; assay: Flower life of a mixed bouquet of cut flowers in a vase with 1 litre of solution; type: in vivo, Rosa, Chrysanthemum santini, Gerbera, Antirrhinum, Solidago; conditions: 1 litre solution, 20° C., 12 per 24 hours of 1000 lux, additions per litre of base solution (BZC 30 ppm, GOX 100 SRU)
Description: A mixed bouquet of 12 flowers composed as follows: was placed in a vase with 1 litre of solution. The solution was either tap water or an aqueous base solution containing 10 g/1 of a composition containing 94.66% glucose, 5% citric acid, 0.34% conventional biocides. […] The vases with flowers were placed under 12 per 24 hours of 1000 lux, at 20° C.

[2] = system: bacterial contamination; assay: Bacterial contamination after 7 days; type: cell-based; conditions: for CFU (bacterial contamination after 7 days): below 10 hardly or not contaminated, above 1,000 heavily contaminated, additions per litre of base solution (BZC 30 ppm, GOX 100 SRU); for effect on bacterial contamination (in words): summary of the table
Description: was placed in a vase with 1 litre of solution. The solution was either tap water or an aqueous base solution containing 10 g/1 of a composition containing 94.66% glucose, 5% citric acid, 0.34% conventional biocides. […] The vases with flowers were placed under 12 per 24 hours of 1000 lux, at 20° C.

Substance	FL (flower life) [1] [days]	CFU (bacterial contamination after 7 days) [2]	effect on bacterial contamination (in words) [2]
benzalkonium chloride [BZC]	12.0	900 1000 CFU/g stem	strong effect
glucose oxidase [GOX]	12.7	4,400 1000 CFU/g stem	strong effect
